Measured values reported in US20050054696A1, “Indole compounds and medicinal use thereof” (priority 2001, published 2005).

Biological target: T1, recombinant human liver glycogen phosphorylase (HLGPa) (Homo sapiens, UniProt P06737)
T1 construct: made in house; host or cells: Sf9 insect cells (unpurified cell lysate used as enzyme solution)
T1 sequence (P06737 1-847): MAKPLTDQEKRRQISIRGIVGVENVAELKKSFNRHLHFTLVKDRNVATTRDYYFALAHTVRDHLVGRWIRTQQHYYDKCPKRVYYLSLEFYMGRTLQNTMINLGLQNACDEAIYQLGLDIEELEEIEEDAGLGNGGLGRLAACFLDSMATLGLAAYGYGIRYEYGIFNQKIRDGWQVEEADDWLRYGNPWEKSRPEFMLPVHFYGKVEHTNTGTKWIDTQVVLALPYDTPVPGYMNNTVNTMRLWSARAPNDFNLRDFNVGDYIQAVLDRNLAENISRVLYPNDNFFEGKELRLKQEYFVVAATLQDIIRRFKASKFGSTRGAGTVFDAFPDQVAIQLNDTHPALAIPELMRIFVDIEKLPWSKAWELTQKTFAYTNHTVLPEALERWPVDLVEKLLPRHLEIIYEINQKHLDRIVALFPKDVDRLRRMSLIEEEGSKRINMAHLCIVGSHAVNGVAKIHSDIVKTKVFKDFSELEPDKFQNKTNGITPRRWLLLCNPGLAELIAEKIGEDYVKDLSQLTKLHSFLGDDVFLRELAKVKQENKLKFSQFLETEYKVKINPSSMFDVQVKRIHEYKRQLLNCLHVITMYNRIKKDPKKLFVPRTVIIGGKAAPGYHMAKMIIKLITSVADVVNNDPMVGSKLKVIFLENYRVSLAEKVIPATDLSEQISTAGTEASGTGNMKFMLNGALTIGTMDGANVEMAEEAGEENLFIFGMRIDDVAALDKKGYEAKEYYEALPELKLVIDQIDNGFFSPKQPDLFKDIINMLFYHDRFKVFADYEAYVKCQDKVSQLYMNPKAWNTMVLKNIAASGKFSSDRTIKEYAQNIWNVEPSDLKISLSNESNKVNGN
Experiment: Measurement of liver glycogen phosphorylase activity (enzyme inhibitory activity against HLGPa)
Format: biochemical
Details: Sf9 cell lysate expressing recombinant enzyme; reverse reaction (glycogen synthesis from G1-P), phosphate by malachite green, 60 min room temperature
Summary of the method: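 Activity was run in the reverse, glycogen-synthesis direction, using Sf9 lysate expressing recombinant human liver glycogen phosphorylase (enzyme solution 80 μg/mL protein, pH 7.0). Substrate solution was Tris pH 7.2 with 1.25 mM glucose-1-phosphate, 2.5 mg/ml glycogen and 7.5 mM glucose, reacted 60 min at room temperature. Released phosphate was measured by malachite green A650, with % inhibition taken against DMSO control and no-enzyme blank.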

IC50 | Structure (SMILES)
> 100 nM | O=C(NNC(=O)c1cc2cc([N+](=O)[O-])ccc2[nH]1)c1ccccc1 [Example 1-122, benzoic acid 2-(5-nitro-1H-indole-2-carbonyl)hydrazide]
49 nM | O=C(O)CNc1ccccc1C(=O)NNC(=O)c1cc2cc(Cl)ccc2[nH]1 [Example 1-61, 2-(2-(2-(5-chloro-1H-indole-2-carbonyl)hydrazinocarbonyl)anilino)acetic acid]
350 nM | O=C(NNC(=O)c1ccccc1C(F)(F)F)c1cc2cc(Cl)ccc2[nH]1 [Example 1-32, 2-trifluoromethylbenzoic acid 2-(5-chloro-1H-indole-2-carbonyl)hydrazide]
88 nM | CCCn1c(=O)n(NC(=O)c2cc3cc(Cl)ccc3[nH]2)c(=O)c2ccccc21 [Example 2-30, 5-chloro-1H-indole-2-carboxylic acid (1,2,3,4-tetrahydro-2,4-dioxo-1-propylquinazolin-3-yl)amide]
270 nM | CC(=O)Oc1ccc2[nH]c(=O)n(NC(=O)c3cc4cc(C)ccc4[nH]3)c(=O)c2c1 [Example 2-29, acetic acid 3-((5-methyl-1H-indole-2-carbonyl)amino)-1,2,3,4-tetrahydro-2,4-dioxoquinazolin-6-yl ester]
28 nM | O=C(Nc1ccccc1C(=O)NNC(=O)c1cc2cc(Cl)ccc2[nH]1)OCCCO [Example 1-112, 3-hydroxypropyl (2-(2-(5-chloro-1H-indole-2-carbonyl)hydrazinocarbonyl)phenyl)carbamate]
37 nM | CC(C)(COC(=O)Nc1ccccc1C(=O)NNC(=O)c1cc2cc(Cl)ccc2[nH]1)C(=O)O [Example 1-76, 3-((2-(2-(5-chloro-1H-indole-2-carbonyl)hydrazinocarbonyl)phenyl)carbamoyloxy)-2,2-dimethylpropionic acid]
89 nM | CN(C)c1ccccc1C(=O)NNC(=O)c1cc2cc(Cl)ccc2[nH]1 [Example 1-51, 2-(dimethylamino)benzoic acid 2-(5-chloro-1H-indole-2-carbonyl)hydrazide]
660 nM | CC(=O)Nc1ccccc1C(=O)NNC(=O)c1cc2cc(Cl)ccc2[nH]1 [Example 1-47, N-(2-(2-(5-chloro-1H-indole-2-carbonyl)hydrazinocarbonyl)phenyl)acetamide]
49 nM | O=C(NNC(=O)c1cc2cc(Cl)ccc2[nH]1)c1ccc(Cl)cc1 [Example 1-21, 4-chlorobenzoic acid 2-(5-chloro-1H-indole-2-carbonyl)hydrazide]
440 nM | O=C(Nn1c(=O)[nH]c2ccccc2c1=O)c1cc2ccc(Cl)cc2[nH]1 [Example 2-12, 6-chloro-1H-indole-2-carboxylic acid (1,2,3,4-tetrahydro-2,4-dioxoquinazolin-3-yl)amide]
> 100 nM | Cc1nc(C(=O)NNC(=O)c2cc3cc(Cl)ccc3[nH]2)cs1 [Example 1-72, 2-methylthiazole-4-carboxylic acid 2-(5-chloro-1H-indole-2-carbonyl)hydrazide]
190 nM | O=C(NNC(=O)c1cc2ccsc2[nH]1)c1cc2cc(Cl)ccc2[nH]1 [Example 1-125, 6H-thieno[2,3-b]pyrrole-5-carboxylic acid 2-(5-chloro-1H-indole-2-carbonyl)hydrazide]
170 nM | Cc1ccc(C(=N)NNC(=O)c2cc3cc(Cl)ccc3[nH]2)n1C [Example 6-27, 5-chloro-1H-indole-2-carboxylic acid 2-((1,2-dimethyl-1H-pyrrol-5-yl)-imino-methyl)hydrazide methanesulfonate]
150 nM | O=C(O)COc1cccc(C(=O)NNC(=O)c2cc3cc(Cl)ccc3[nH]2)c1 [Example 1-70, 2-(3-(2-(5-chloro-1H-indole-2-carbonyl)hydrazinocarbonyl)phenoxy)acetic acid]
> 100 nM | COC(=O)Nc1ccccc1C(=O)NNC(=O)c1cc2cc(C)ccc2[nH]1 [Example 1-64, methyl (2-(2-(5-methyl-1H-indole-2-carbonyl)hydrazinocarbonyl)phenyl)carbamate]
410 nM | O=C(NNC(=O)C1(c2ccccc2)CCCC1)c1cc2cc(Cl)ccc2[nH]1 [Example 5-13, 5-chloro-1H-indole-2-carboxylic acid 2-((1-phenylcyclopentane)carbonyl)hydrazide]
110 nM | N=C(NNC(=O)c1cc2cc(Cl)ccc2[nH]1)c1cccc(F)c1 [Example 1-132, 5-chloro-1H-indole-2-carboxylic acid 2-((3-fluorophenyl)-imino-methyl)hydrazide]

IC50 | Structure (SMILES)
200 nM | O=C(NNC(=O)C1CCCCC1)c1cc2cc(F)ccc2[nH]1 [Example 1-10, cyclohexanecarboxylic acid 2-(5-fluoro-1H-indole-2-carbonyl)hydrazide]
> 100 nM | O=C(NN1C(=O)N[C@@H](Cc2ccccc2)C1=O)c1cc2cc(Cl)ccc2[nH]1 [Example 4-9, 5-chloro-1H-indole-2-carboxylic acid ((4S)-4-benzyl-2,5-dioxoimidazolidin-1-yl)amide]
49 nM | O=C(NNC(=O)c1cc2cc(Cl)ccc2[nH]1)Nc1cccc(F)c1 [Example 5-6, 5-chloro-1H-indole-2-carboxylic acid 2-((3-fluorophenyl)aminocarbonyl)hydrazide]
280 nM | Cc1ccc(C(=O)NNC(=O)c2cc3cc(Cl)ccc3[nH]2)c(N)c1 [Example 1-95, 2-amino-4-methylbenzoic acid 2-(5-chloro-1H-indole-2-carbonyl)hydrazide]
380 nM | N=C(NNC(=O)c1cc2cc(Cl)ccc2[nH]1)c1ccccc1C(F)(F)F [Example 1-139, 5-chloro-1H-indole-2-carboxylic acid 2-(imino-(2-trifluoromethylphenyl)-methyl)hydrazide]
49 nM | O=C(NNC(=O)c1cc2cc(Cl)ccc2[nH]1)c1cccc(F)c1 [Example 1-28, 3-fluorobenzoic acid 2-(5-chloro-1H-indole-2-carbonyl)hydrazide]
27 nM | O=C(O)COc1ccccc1C(=O)NNC(=O)c1cc2cc(Cl)ccc2[nH]1 [Example 1-50, 2-(2-(2-(5-chloro-1H-indole-2-carbonyl)hydrazinocarbonyl)phenoxy)acetic acid]
> 100 nM | O=C(NN1C(=O)[C@@H]2CCCN2C1=O)c1cc2cc(Cl)ccc2[nH]1 [Example 4-7, 5-chloro-1H-indole-2-carboxylic acid ((4S)-1,3-dioxo-perhydropyrrolo[1,2-c]imidazol-2-yl)amide]
91 nM | CN(C)C(=O)COc1ccccc1C(=O)NNC(=O)c1cc2cc(Cl)ccc2[nH]1 [Example 1-52, 2-(2-(5-chloro-1H-indole-2-carbonyl)hydrazinocarbonyl)phenoxy-N,N-dimethylacetamide]
33 nM | N=C(NNC(=O)c1cc2cc(Cl)ccc2[nH]1)c1ccc(F)cc1 [Example 1-128, 5-chloro-1H-indole-2-carboxylic acid 2-((4-fluorophenyl)-imino-methyl)hydrazide]
810 nM | Nc1ccccc1C(=O)NNC(=O)c1cc2ccc(Cl)cc2[nH]1 [Example 1-39, 2-aminobenzoic acid 2-(6-chloro-1H-indole-2-carbonyl)hydrazide]
730 nM | O=C(NN1C(=O)CCN(c2ccccc2)C1=O)c1cc2cc(F)ccc2[nH]1 [Example 3-9, 5-fluoro-1H-indole-2-carboxylic acid (2,4-dioxo-1-phenyl-perhydropyrimidin-3-yl)amide]
15 nM | O=C(NNC(=O)c1cc2cc(Cl)ccc2[nH]1)c1ccc(F)cc1 [Example 1-29, 4-fluorobenzoic acid 2-(5-chloro-1H-indole-2-carbonyl)hydrazide]
> 100 nM | O=C(NN1C(=O)CN(c2ccc(F)cc2)C1=O)c1cc2cc(Cl)ccc2[nH]1 [Example 4-13, 5-chloro-1H-indole-2-carboxylic acid (2,4-dioxo-1-(4-fluorophenyl)imidazolidin-3-yl)amide]
> 100 nM | O=C(NN1C(=O)CN(c2ccccc2)C1=S)c1cc2cc(Cl)ccc2[nH]1 [Example 4-3, N-(4-oxo-1-phenyl-2-thioxoimidazolidin-3-yl)-5-chloro-1H-indole-2-carboxamide]
> 100 nM | CN1C(=O)N(NC(=O)c2cc3cc(Cl)ccc3[nH]2)C(=O)[C@@H]1c1ccccc1 [Example 4-12, 5-chloro-1H-indole-2-carboxylic acid (1-methyl-2,5-dioxo-4-phenylimidazolidin-1-yl)amide]
18 nM | O=C(NNC(=O)c1ccc(F)cc1F)c1cc2cc(Cl)ccc2[nH]1 [Example 1-26, 2,4-difluorobenzoic acid 2-(5-chloro-1H-indole-2-carbonyl)hydrazide]
